Data taken from patent US8153408B2, “Biocatalytic racemisation of alpha-hydroxyketones” (BASF SE, priority 2006, dated 2012).

Tests used:
[1] = system: rehydrated lyophilised (resting) cells of Lactobacillus paracasei subsp. paracasei DSM 20207; assay: Biocatalytic racemisation of acyloins 1-4 by whole resting cells; assay type: cell-based; settings: L. paracasei DSM 20207 cells; for Relative Rate (initial rate of racemisation relative to (R)-1 arbitrarily set as standard (100%)): aqueous BIS-TRIS buffer pH 6, 42° C.; for racemisation rate (in words): aqueous buffer at pH 6; for Racemization (extent of racemisation under standard conditions after 24 h): pH 6, 42° C.
Method: (§1) After 3 days, the cells were harvested by centrifugation (18000*g), lyophilised and stored at +4° C. For the biocatalytic racemisation, 50 mg of whole lyophilised cells were rehydrated in 0.5 ml aqueous BIS-TRIS buffer (50 mM, 10^−2 M MgCl2, pH 6) for 1 h at 42° C. with shaking at 150 rpm. Substrates 1-4 (5 mg) were added followed by shaking of the reaction mixture with 150 rpm at 42° C. for 24 h, 48 h and 72 h. Then the reaction mixture was extracted with ethyl acetate and the organic phase was dried over sodium sulfate. The organic phase was evaporated under reduced pressure and the residue was dissolved in HPLC-eluent. The determination the enantiomeric excess of the substrate was carried out by HPLC on a chiral stationary phase. Analysis of the enantiomeric composition versus time gave the initial rates of racemisation, which are represented as % with respect to substrate (R)-1 sert as standard (100%).
(§2) The biocatalytic racemisation of acyloins 1-4 was performed using rehydrated lyophilised (resting) cells of Lactobacillus paracasei subsp. paracasei DSM 20207 in aqueous buffer at pH 6, the racemisation of acyloins 5-6 by using rehydrated lyophilised (resting) cells of Lactobacillus halotoleransi DSM 20190.

[2] = system: rehydrated lyophilised (resting) cells of Lactobacillus halotoleransi DSM 20190; assay: Biocatalytic racemisation of acyloins 5-6 by whole resting cells; assay type: cell-based, Lactobacillus halotolerans DSM 20190; settings: L. halotolerans DSM 20190 cells; for Relative Rate (initial rate of racemisation relative to (R)-1 arbitrarily set as standard (100%)): aqueous BIS-TRIS buffer pH 6, 42° C.; for Racemization (extent of racemisation under standard conditions after 24 h): pH 6, 42° C.
Method: as §1, §2

SMILES	Relative Rate (initial rate of racemisation relative to (R)-1 arbitrarily set as standard (100%)) [1] [%]	racemisation rate (in words) [1]	Racemization (extent of racemisation under standard conditions after 24 h) [1] [%]	racemisation (in words) [2]	Relative Rate (initial rate of racemisation relative to (R)-1 arbitrarily set as standard (100%)) [2] [%]	Racemization (extent of racemisation under standard conditions after 24 h) [2] [%]
CC(=O)[C@@H](C)O [(R)-1, acetoin]	100	fast racemisation rate	86	–	–	–
O=C1c2ccccc2C[C@H]1O [(R)-6, (R)-2-Hydroxyindane-1-one]	–	–	–	high racemisation	58	84
CC(=O)[C@H](O)c1ccccc1 [(R)-3, (R)-phenylacetylcarbinol]	67	High racemisation rates	50	–	–	–
O=C1c2ccccc2CC[C@H]1O [(R)-5, (R)-2-Hydroxy-1,2,3,4-tetranaphtalin-1-one]	–	–	–	high racemisation	77	92
C[C@@H](O)C(=O)c1ccccc1 [(R)-4, (R)-2-hydroxypropiophenone]	65	slightly reduced	46	–	–	–
